Results reported in patent US20230159467A1, “NOVEL COMPOUNDS USEFUL IN THE TREATMENT AND/OR PREVENTION OF A DISEASE, DISORDER OR CONDITION ASSOCIATED WITH ANGIOTENSIN II” (Vicore Pharma AB, priority 2020, published 2023).

Tests used:
human AT2R = target: T1, human AT2R (Homo sapiens, UniProt P50052); assay type: binding; conditions: HEK-293 cell membranes
T1 construct: host or cells: HEK-293
T1 sequence (P50052 1-363): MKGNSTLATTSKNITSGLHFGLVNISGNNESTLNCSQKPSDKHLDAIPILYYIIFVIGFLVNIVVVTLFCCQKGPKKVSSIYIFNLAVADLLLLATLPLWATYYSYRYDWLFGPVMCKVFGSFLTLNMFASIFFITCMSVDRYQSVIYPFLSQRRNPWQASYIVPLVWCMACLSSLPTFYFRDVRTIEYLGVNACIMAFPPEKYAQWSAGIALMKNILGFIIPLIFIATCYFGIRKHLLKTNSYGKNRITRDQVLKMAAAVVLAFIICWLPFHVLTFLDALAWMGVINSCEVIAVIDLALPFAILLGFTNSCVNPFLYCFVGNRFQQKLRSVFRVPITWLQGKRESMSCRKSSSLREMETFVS

human AT1R = target: T2, human AT1R (Homo sapiens, UniProt P30556); assay type: binding; conditions: HEK-293 cell membranes
T2 construct: host or cells: HEK-293
T2 sequence (P30556 1-359): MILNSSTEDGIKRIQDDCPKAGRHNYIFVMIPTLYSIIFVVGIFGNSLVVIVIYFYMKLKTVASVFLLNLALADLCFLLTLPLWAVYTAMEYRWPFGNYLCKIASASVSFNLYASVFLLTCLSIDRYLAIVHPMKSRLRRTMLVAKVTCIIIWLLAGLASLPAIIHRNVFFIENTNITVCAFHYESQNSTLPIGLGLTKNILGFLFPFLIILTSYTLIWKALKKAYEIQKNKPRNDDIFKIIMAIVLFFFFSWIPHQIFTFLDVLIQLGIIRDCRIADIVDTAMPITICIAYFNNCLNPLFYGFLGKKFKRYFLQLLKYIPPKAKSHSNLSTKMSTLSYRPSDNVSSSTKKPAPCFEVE

[1] = Stability in human liver microsomes; assay type: in vitro ADME; conditions: half-life
Description: Stability in liver microsomes. Human, mouse and rat liver microsomes were used to assess the metabolic stability for the compounds. Metabolic stability was determined in 0.5 mg/mL human, mouse or rat liver microsomes at a compound concentration of 1 μM in 100 mM potassium phosphate buffer (pH 7.4) in a total incubation volume of 500 μL by Eurofins. The assay matrix was: human liver microsomes: mixed gender and pool of 50, rat liver microsomes: male, Sprague-Dawley, pool of 100 or more and mouse liver microsomes: male,CD-1, pool of 250 or more. Final microsomal protein concentration: 0.1mg/mL. The test concentration was 0.1 μM with 0.01% DMSO, 0.25% acetonitrile and 0.25% methanol by default. […] The reaction was initiated by adding NADPH-generating system and was incubated for 0, 15, 30, 45, and 60 min. The reaction was stopped by transferring the incubation mixture to acetonitrile/methanol. Samples were then mixed and centrifuged. Four reference compounds were tested in each assay. Propranolol and imipramine are relatively stable, whereas verapamil and terfenadine are readily metabolized inhuman liver microsomes. Samples were analyzed by HPLC-MS/MS using selected reaction monitoring. The HPLC system consisted of a binary LC pump with autosampler, a C-18 column, and a gradient. Peak areas corresponding to the test compound were recorded. The compound remaining was calculated by comparing the peak area at each time point to time zero. The half-life was calculated from the slope of the initial linear range of the logarithmic curve of compound remaining (%) vs. time, assuming first order kinetics. In addition, the intrinsic clearance (Clint) was calculated.^19,20

Compound | Ki (human AT2R) [nM] | Ki (human AT1R) [nM] | Stability in liver microsomes HLM [1] [min]
COC(=O)NS(=O)(=O)c1ccc(CC(C)C)cc1-c1ccc(Cn2ccnc2C(C)C)cc1 [Example 36, Methyl ((5-isobutyl-4′-((2-(isopropan-2-yl)-1H-imidazol-1-yl)methyl)-[1,1′-biphenyl]-2-yl)sulfonyl)carbamate] | 3.26 | – | –
CCCCOC(=O)NS(=O)(=O)c1sc(CC(C)C)nc1-c1ccc(Cn2ccnc2C(C)(C)F)cc1 [Example 47, Butyl ((4-(4-((2-(2-fluoropropan-2-yl)-1H-imidazol-1-yl)methyl)phenyl)-2-isobutylthiazol-5-yl)sulfonyl)carbamate] | 56 | – | –
CCCc1nc(-c2ccc(Cn3ccnc3C3CC3)cc2)c(S(=O)(=O)NC(=O)OC)s1 [Example 28, Methyl ((4-(4-((2-cyclopropyl-1H-imidazol-1-yl)methyl)phenyl)-2-propylthiazol-5-yl)sulfonyl)carbamate] | 274 | 20000 | –
COC(=O)NS(=O)(=O)c1sc(CC(C)C)nc1-c1ccc(Cn2ccnc2C(C)O)cc1 (centres unmarked) [Example 23, Methyl ((4-(4-((2-(1-hydroxyethyl)-1H-imidazol-1-yl)methyl)phenyl)-2-isobutylthiazol-5-yl)sulfonyl)carbamate] | – | – | >60
COCCOC(=O)NS(=O)(=O)c1sc(CC(C)C)cc1-c1ccc(Cn2ccnc2C(C)(C)C)cc1 [Example 44] | 2.54 | – | –
CCCCOC(=O)NS(=O)(=O)c1sc(CCC)nc1-c1ccc(Cn2ccnc2C(C)(C)F)cc1 [Example 45, Butyl ((4-(4-((2-(2-fluoropropan-2-yl)-1H-imidazol-1-yl)methyl)phenyl)-2-propylthiazol-5-yl)sulfonyl)carbamate] | > 1000 | – | –
CCCc1nc(-c2ccc(Cn3ccnc3C(C)(C)C)cc2)c(S(=O)(=O)NC(=O)OC)s1 [Example 5, Methyl ((4-(4-((2-(tert-butyl)-1H-imidazol-1-yl)methyl)phenyl)-2-propylthiazol-5-yl)sulfonyl)carbamate] | 190 | ~1000 | –
CCCc1nc(-c2ccc(Cn3ccnc3C(C)O)cc2)c(S(=O)(=O)NC(=O)OC)s1 (centres unmarked) [Example 25, Methyl ((4-(4-((2-(1-hydroxyethyl)-1H-imidazol-1-yl)methyl)phenyl)-2-propylthiazol-5-yl)sulfonyl)carbamate] | 1600 | – | –
CCCCOC(=O)NS(=O)(=O)c1sc(CCC)nc1-c1ccc(Cn2ccnc2-c2nccs2)cc1 [Example 21, Butyl ((2-propyl-4-(4-((2-(thiazol-2-yl)-1H-imidazol-1-yl)methyl)phenyl)thiazol-5-yl)sulfonyl)carbamate] | 350 | 1000 | –
COC(=O)NS(=O)(=O)c1sc(CC(C)C)nc1-c1ccc(Cn2ccnc2C(C)C)cc1 [Example 20, Methyl ((2-isobutyl-4-(4-((2-isopropyl-1H-imidazol-1-yl)methyl)phenyl)thiazol-5-yl)sulfonyl)carbamate] | 27 | – | >60
CCCCOC(=O)NS(=O)(=O)c1sc(CC(C)C)cc1-c1ccc(Cn2ccnc2C(C)(C)F)cc1 [Example 42] | 1.66 | – | –
CCCCOC(=O)NS(=O)(=O)c1sc(CCC)nc1-c1ccc(Cn2ccnc2C2CC2)cc1 [Example 29, Butyl ((4-(4-((2-cyclopropyl-1H-imidazol-1-yl)methyl)phenyl)-2-propylthiazol-5-yl)sulfonyl)carbamate] | 36 | 15000 | –
COC(=O)NS(=O)(=O)c1sc(CC(C)C)nc1-c1ccc(Cn2ccnc2C2CC2)cc1 [Example 26, Methyl ((4-(4-((2-cyclopropyl-1H-imidazol-1-yl)methyl)phenyl)-2-isobutylthiazol-5-yl)sulfonyl)carbamate] | 99 | 13000 | –
COC(=O)NS(=O)(=O)c1sc(CC(C)C)cc1-c1ccc(Cn2ccnc2C(C)(C)F)cc1 [Example 43] | 3.74 | – | –
CCCCOC(=O)NS(=O)(=O)c1sc(CCC)nc1-c1ccc(Cn2ccnc2C(C)(C)C)cc1 [Example 6, Butyl ((4-(4-((2-(tert-butyl)-1H-imidazol-1-yl)methyl)phenyl)-2-propylthiazol-5-yl)sulfonyl) carbamate] | 71 | ~1000 | –
CCCCOC(=O)NS(=O)(=O)c1ccc(CC(C)C)cc1-c1ccc(Cn2ccnc2-c2nccs2)cc1 [Example 35B, Potassium (butoxycarbonyl) ((5-isobutyl-4′-((2-(thiazol-2-yl)-1H-imidazolyl)methyl)-[1,1′-biphenyl]-2-yl)sulfonyl)amide] | 6.7 | 7000 | –
CCCCOC(=O)[N-]S(=O)(=O)c1ccc(CCC)cc1-c1ccc(Cn2ccnc2C(C)(C)O)cc1.[K+] [Example 31B, Potassium (butoxycarbonyl) ((4′-((2-(2-hydroxypropan-2-yl)-1H-imidazol-1-yl)methyl)-5-propyl-[1,1′-biphenyl]-2-yl)sulfonyl)amide] | – | – | 20
CCCc1nc(-c2ccc(Cn3ccnc3C(C)(C)F)cc2)c(S(=O)(=O)NC(=O)OC)s1 [Example 46, Methyl ((4-(4-((2-(2-fluoropropan-2-yl)-1H-imidazol-1-yl)methyl)phenyl)-2-propylthiazol-5-yl)sulfonyl)carbamate] | > 1000 | – | –
CCCCOC(=O)NS(=O)(=O)c1sc(CC(C)C)nc1-c1ccc(Cn2ccnc2C2CC2)cc1 [Example 27, Butyl ((4-(4-((2-cyclopropyl-1H-imidazol-1-yl)methyl)phenyl)-2-isobutylthiazol-5-yl)sulfonyl)carbamate] | 11 | 8000 | –
CCCCOC(=O)NS(=O)(=O)c1sc(CCC)nc1-c1ccc(Cn2ccnc2C(C)C)cc1 [Example 15, Butyl ((4-(4-((2-isopropyl-1H-imidazol-1-yl)methyl)phenyl)-2-propylthiazol-5-yl)sulfonyl)carbamate] | 39 | – | >60
COC(=O)NS(=O)(=O)c1sc(CC(C)C)nc1-c1ccc(Cn2ccnc2C(C)(C)F)cc1 [Example 48, Methyl ((4-(4-((2-(2-fluoropropan-2-yl)-1H-imidazol-1-yl)methyl)phenyl)-2-isobutylthiazol-5-yl)sulfonyl)carbamate] | 475 | – | –
COC(=O)NS(=O)(=O)c1sc(CC(C)C)cc1-c1ccc(Cn2ccnc2C(C)(C)O)cc1 [Example 41] | 3.08 | – | –

Further lines, results first:

Ki (human AT2R) [nM] | Ki (human AT1R) [nM] | Stability in liver microsomes HLM [1] [min] | Compound
15 | ~10000 | – | CCCCOC(=O)NS(=O)(=O)c1ccc(CC(C)C)cc1-c1ccc(Cn2ccnc2C(C)(C)C)cc1 [Example 2A, Butyl ((4′-((2-(tert-butyl)-1H-imidazol-1-yl)methyl)-5-isobutyl-[1,1′-biphenyl]-2-yl)sulfonyl)carbamate]
4.6 | 1000 | >60 | CCCc1ccc(S(=O)(=O)[N-]C(=O)OC)c(-c2ccc(Cn3ccnc3C(C)(C)O)cc2)c1.[K+] [Example 30B, Potassium (methoxycarbonyl) ((4′-((2-(2-hydroxypropan-2-yl)-1H-imidazol-1-yl)methyl)-5-propyl-[1,1′-biphenyl]-2-yl)sulfonyl)amide]
5.64 | – | – | CCCCOC(=O)NS(=O)(=O)c1ccc(CC(C)C)cc1-c1ccc(Cn2ccnc2C2CC2)cc1 [Example 38A, Butyl ((5-isobutyl-4′-((2-(cyclopropan-2-yl)-1H-imidazol-1-yl)methyl)-[1,1′-biphenyl]-2-yl)sulfonyl)carbamate]
4.8 | – | – | COC(=O)NS(=O)(=O)c1ccc(CC(C)C)cc1-c1ccc(Cn2ccnc2C2CC2)cc1 [Example 39A, Methyl ((5-isobutyl-4′-((2-(cyclopropan-2-yl)-1H-imidazol-1-yl)methyl)-[1,1′-biphenyl]-2-yl)sulfonyl)carbamate]
9.62 | – | – | CCCCOC(=O)NS(=O)(=O)c1sc(CC(C)C)cc1-c1ccc(Cn2ccnc2C(C)(C)O)cc1 [Example 40A]
2.22 | – | – | CCCCOC(=O)NS(=O)(=O)c1ccc(CC(C)C)cc1-c1ccc(Cn2ccnc2C(C)C)cc1 [Example 37A, Butyl ((5-isobutyl-4′-((2-(isopropan-2-yl)-1H-imidazol-1-yl)methyl)-[1,1′-biphenyl]-2-yl)sulfonyl)carbamate]
